Results as given in ChEMBL document CHEMBL5331134, “Identification of Brain-Penetrant ATP-Competitive mTOR Inhibitors for CNS Syndromes” (J Med Chem, 2023).
Blank lines part the entries; values can stand above or below the compound they belong to.

Tests used:
[1] = Half life in Beagle dog at 1 mg/kg, po and 0.3 mg/kg, iv measured upto 24 hrs by LC/MS/MS analysis; type: ADME, organism-based, Canis lupus familiaris; details: in vivo
[2] = In vivo inhibition of phosphorylation of AKT at serine 473 residues in C57BL/6 mouse brain at 10 to 30 mg/kg, po measured after 3 hrs by Western blotting analysis; type: organism-based; details: dose 10-30 mg/kg
[3] = In vivo inhibition of phosphorylation of AKT at serine 473 residues in C57BL/6 mouse brain at 10 to 30 mg/kg, po measured after 24 hrs by Western blotting analysis; type: organism-based; details: dose 10-30 mg/kg
[4] = AUC(0 to t) in Beagle dog at 0.3 mg/kg, iv measured upto 24 hrs by LC/MS/MS analysis; type: ADME, organism-based, Canis lupus familiaris; design: time < 24 hrs, dose 0.3 mg/kg, route iv; details: in vivo
[5] = Clearance in C57BL/6 mouse at 1 mg/kg, iv and 3 mg/kg, ip measured upto 24 hrs by HPLC-MS analysis; type: ADME, organism-based; details: in vivo
[6] = Cmax in cynomolgus monkey at 0.3 mg/kg, po measured upto 24 hrs by LC/MS/MS analysis; type: ADME, organism-based, Macaca fascicularis; design: dose 0.3 mg/kg, time < 24 hrs, route po; details: in vivo
[7] = Tmax in cynomolgus monkey at 0.3 mg/kg, po measured upto 24 hrs by LC/MS/MS analysis; type: ADME, organism-based, Macaca fascicularis; details: in vivo
[8] = Volume of distribution at steady state in Beagle dog at 1 mg/kg, po and 0.3 mg/kg, iv measured upto 24 hrs by LC/MS/MS analysis; type: ADME, organism-based, Canis lupus familiaris; details: in vivo
[9] = Phototoxicity against mouse BALB/3T3 clone A31 cells assessed as photo-irradiation factor incubated for 1 hr followed by irradiated with 5 J/cm^2 of light dose measured after 24 hrs by neutral red uptake assay; type: toxicity, cell-based; details: balb/3t3 clone a31, 1 h
[10] = MRT(0 to t) in Beagle dog at 1 mg/kg, po and 0.3 mg/kg, iv measured upto 24 hrs by LC/MS/MS analysis; type: ADME, organism-based, Canis lupus familiaris; details: in vivo
[11] = Drug concentration in C57BL/6 mouse plasma at 3 mg/kg, po measured after 8 hrs; type: ADME, organism-based
[12] = Drug concentration in C57BL/6 mouse brain at 3 mg/kg, po measured after 8 hrs; type: ADME, organism-based; details: read-out: Ct
[13] = Drug concentration in C57BL/6 mouse plasma at 30 mg/kg, po measured after 8 hrs; type: ADME, organism-based
[14] = Ratio of drug concentration in brain to plasma in C57BL/6 mouse at 3 mg/kg, po measured at 3 hrs; type: ADME, organism-based; details: read-out: BPR
[15] = Ratio of drug concentration in brain to plasma in C57BL/6 mouse at 10 mg/kg, po measured at 8 hrs; type: ADME, organism-based; details: read-out: BPR
[16] = AUC(0 to t) in cynomolgus monkey at 1 mg/kg, po measured upto 24 hrs by LC/MS/MS analysis; type: ADME, organism-based, Macaca fascicularis; design: time < 24 hrs, dose 1 mg/kg, route po; details: in vivo
[17] = AUC(0 to t) in cynomolgus monkey at 0.1 mg/kg, iv measured upto 24 hrs by LC/MS/MS analysis; type: ADME, organism-based, Macaca fascicularis; design: dose 0.1 mg/kg, time < 24 hrs, route iv; details: in vivo
[18] = Drug concentration in C57BL/6 mouse plasma at 1 mg/kg, po measured after 3 hrs; type: ADME, organism-based
[19] = Drug concentration in C57BL/6 mouse brain at 3 mg/kg, po measured after 1 hr; type: ADME, organism-based; details: read-out: Ct
[20] = Tmax in cynomolgus monkey at 1 mg/kg, po and 0.1 mg/kg, iv measured upto 24 hrs by LC/MS/MS analysis; type: ADME, organism-based, Macaca fascicularis; details: in vivo
[21] = Bioavailability in cynomolgus monkey at 1 mg/kg, po and 0.1 mg/kg, iv measured upto 24 hrs by LC/MS/MS analysis; type: ADME, organism-based, Macaca fascicularis; details: in vivo
[22] = Drug concentration in C57BL/6 mouse plasma at 1 mg/kg, po measured after 1 hr; type: ADME, organism-based
[23] = Volume of distribution at steady state in cynomolgus monkey at 1 mg/kg, po and 0.1 mg/kg, iv measured upto 24 hrs by LC/MS/MS analysis; type: ADME, organism-based, Macaca fascicularis; details: in vivo
[24] = Drug concentration in C57BL/6 mouse brain at 10 mg/kg, po measured after 8 hrs; type: ADME, organism-based; details: read-out: Ct
[25] = Ratio of drug concentration in brain to plasma in C57BL/6 mouse at 1 mg/kg, po measured after 24 hrs; type: ADME, organism-based; details: read-out: BPR
[26] = In vivo inhibition of phosphorylation of AKT at serine 473 residues in C57BL/6 mouse brain at 10 mg/kg, po measured after 8 hrs by Western blotting analysis; type: organism-based
[27] = Ratio of drug concentration in brain to plasma in C57BL/6 mouse at 3 mg/kg, po measured at 8 hrs; type: ADME, organism-based; details: read-out: BPR
[28] = Cmax in cynomolgus monkey at 1 mg/kg, po measured upto 24 hrs by LC/MS/MS analysis; type: ADME, organism-based, Macaca fascicularis; design: time < 24 hrs, dose 1 mg/kg, route po; details: in vivo
[29] = In vivo inhibition of phosphorylation of S6 at serine 240/244 residues in C57BL/6 mouse brain at 30 mg/kg, po measured after 24 hrs by Western blotting analysis; type: organism-based
[30] = In vivo inhibition of phosphorylation of AKT at serine 473 residues in C57BL/6 mouse brain at 30 mg/kg, po measured after 24 hrs by Western blotting analysis; type: organism-based
[31] = Drug concentration in C57BL/6 mouse plasma at 3 mg/kg, po measured after 1 hr; type: ADME, organism-based
[32] = Drug concentration in C57BL/6 mouse brain at 3 mg/kg, po measured after 3 hrs; type: ADME, organism-based; details: read-out: Ct
[33] = Ratio of drug concentration in brain to plasma in C57BL/6 mouse at 1 mg/kg, po measured at 1 hr; type: ADME, organism-based; details: read-out: BPR
[34] = Drug concentration in C57BL/6 mouse plasma at 1 mg/kg, po measured after 8 hrs; type: ADME, organism-based
[35] = Drug concentration in C57BL/6 mouse brain at 1 mg/kg, po measured after 24 hrs; type: ADME, organism-based; details: read-out: Ct
[36] = Ratio of drug concentration in brain to plasma in C57BL/6 mouse at 30 mg/kg, po measured at 8 hrs; type: ADME, organism-based; details: read-out: BPR
[37] = MRT(0 to t) in cynomolgus monkey at 1 mg/kg, po and 0.1 mg/kg, iv measured upto 24 hrs by LC/MS/MS analysis; type: ADME, organism-based, Macaca fascicularis; details: in vivo
[38] = In vivo inhibition of phosphorylation of S6 at serine 240/244 residues in C57BL/6 mouse brain at 3 to 10 mg/kg, po measured after 8 hrs by Western blotting analysis; type: organism-based; details: dose 3-10 mg/kg
[39] = Ratio of drug concentration in brain to plasma in C57BL/6 mouse at 10 mg/kg, po measured at 24 hrs; type: ADME, organism-based; details: brain and plasma, read-out: BPR
[40] = Drug concentration in C57BL/6 mouse plasma at 3 mg/kg, po measured after 24 hrs; type: ADME, organism-based
[41] = Ratio of drug concentration in brain to plasma in C57BL/6 mouse at 1 mg/kg, po measured at 8 hrs; type: ADME, organism-based; details: read-out: BPR
[42] = Drug concentration in C57BL/6 mouse plasma at 1 mg/kg, po measured after 24 hrs; type: ADME, organism-based
[43] = Drug concentration in C57BL/6 mouse plasma at 3 mg/kg, po measured after 3 hrs; type: ADME, organism-based
[44] = Drug concentration in C57BL/6 mouse brain at 1 mg/kg, po measured after 1 hr; type: ADME, organism-based; details: read-out: Ct

half-life [1]: 1.9 h
inhibition (INH) [2]: Active
inhibition (INH) [3]: Not Active
AUC(0-t) at 24 h [4]: 147 nM·h
clearance [5]: 1.14 L/h/kg
Cmax [6]: 0.013 µM
Tmax [7]: 1.2 h
Vdss [8]: 4.3 L/kg
MRT last at 24 h [10]: 0.9 h
Structure (SMILES): C[C@@H]1COCCN1c1cc(N2CCOC[C@@H]2C)nc2[nH]c(-c3ccccn3)nc12
Activity [9]: 1

concentration at 8 h [11]: 1.19 µM
concentration at 8 h [12]: 0.341 µM
concentration at 8 h [13]: 0.633 µM
Kp at 3 h [14]: 0.45
Kp at 8 h [15]: 0.57
AUC(0-t) at 24 h [16]: 3760 nM·h
AUC(0-t) at 24 h [17]: 340 nM·h
concentration at 3 h [18]: 0.674 µM
concentration at 1 h [19]: 1.4 µM
Tmax [20]: 1.2 h
bioavailability [21]: 110%
concentration at 1 h [22]: 0.766 µM
Vdss [23]: 3 L/kg
concentration at 8 h [24]: 0.23 µM
Kp at 24 h [25]: 1.91
inhibition (INH) [26]: Active
Kp at 8 h [27]: 0.29
Cmax [28]: 0.468 µM
inhibition (INH) [29]: Active
inhibition (INH) [30]: Active
concentration at 1 h [31]: 2.75 µM
concentration at 3 h [32]: 0.93 µM
Kp at 1 h [33]: 0.51
concentration at 8 h [34]: 0.246 µM
concentration at 24 h [35]: 0.007 µM
Kp at 8 h [36]: 0.73
MRT last at 24 h [37]: 4.2 h
inhibition (INH) [38]: Active
Kp at 24 h [39]: 0.62
concentration at 24 h [40]: 0.006 µM
Kp at 8 h [41]: 0.37
concentration at 24 h [42]: 0.004 µM
concentration at 3 h [43]: 2.05 µM
concentration at 1 h [44]: 0.388 µM
Structure (SMILES): C[C@@H]1COCCN1c1cc(N2CCOC[C@@H]2C)nc2[nH]c(-c3cscn3)nc12
